According to PubChem BioAssay (NCI):
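Growth conditions: 96-well plates. Treatment: test compound, 48 hours, 5 concentrations. Analysis: linear interpolation between bracketing concentrations; unreached endpoints set to highest concentration. At the GI50, growth is halved. TGI: total growth inhibition.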

Tests used:
Assay in all cases: NCI tumour cell line growth inhibition, 48 h
OVCAR-4 ovarian = tested on: OVCAR-4 ovarian
786-0 renal = tested on: 786-0 renal
IGROV1 ovarian = tested on: IGROV1 ovarian
LOX IMVI melanoma = tested on: LOX IMVI melanoma
BT-549 breast = tested on: BT-549 breast
MDA-MB-231 breast = tested on: MDA-MB-231 breast
M14 melanoma = tested on: M14 melanoma
A498 renal = tested on: A498 renal
U251 CNS = tested on: U251 CNS
DU-145 prostate = tested on: DU-145 prostate
RPMI-8226 leukemia = tested on: RPMI-8226 leukemia
NCI-H460 lung = tested on: NCI-H460 lung
OVCAR-8 ovarian = tested on: OVCAR-8 ovarian
HT29 colon = tested on: HT29 colon
NCI-H522 lung = tested on: NCI-H522 lung
SF-268 CNS = tested on: SF-268 CNS
SN12C renal = tested on: SN12C renal
UACC-257 melanoma = tested on: UACC-257 melanoma
RXF 393 renal = tested on: RXF 393 renal
KM12 colon = tested on: KM12 colon
CCRF-CEM leukemia = tested on: CCRF-CEM leukemia
MALME-3M melanoma = tested on: MALME-3M melanoma
SNB-19 CNS = tested on: SNB-19 CNS
UACC-62 melanoma = tested on: UACC-62 melanoma
HCT-15 colon = tested on: HCT-15 colon
SF-295 CNS = tested on: SF-295 CNS
EKVX NSCLC = tested on: EKVX NSCLC
NCI/ADR-RES ovarian = tested on: NCI/ADR-RES ovarian
CAKI-1 renal = tested on: CAKI-1 renal
NCI-H23 lung = tested on: NCI-H23 lung
MCF7 breast = tested on: MCF7 breast
TK-10 renal = tested on: TK-10 renal
SK-OV-3 ovarian = tested on: SK-OV-3 ovarian
NCI-H226 lung = tested on: NCI-H226 lung
HS 578T breast = tested on: HS 578T breast
SK-MEL-2 melanoma = tested on: SK-MEL-2 melanoma
T-47D breast = tested on: T-47D breast
SR leukemia = tested on: SR leukemia
SK-MEL-5 melanoma = tested on: SK-MEL-5 melanoma
SK-MEL-28 melanoma = tested on: SK-MEL-28 melanoma
COLO 205 colon = tested on: COLO 205 colon
OVCAR-5 ovarian = tested on: OVCAR-5 ovarian
SF-539 CNS = tested on: SF-539 CNS
SW-620 colon = tested on: SW-620 colon
HCC-2998 colon = tested on: HCC-2998 colon
MOLT-4 leukemia = tested on: MOLT-4 leukemia
ACHN renal = tested on: ACHN renal
OVCAR-3 ovarian = tested on: OVCAR-3 ovarian
HOP-62 NSCLC = tested on: HOP-62 NSCLC
SNB-75 CNS = tested on: SNB-75 CNS
HCT-116 colon = tested on: HCT-116 colon
HOP-92 NSCLC = tested on: HOP-92 NSCLC
HL-60(TB) leukemia = tested on: HL-60(TB) leukemia
PC-3 prostate = tested on: PC-3 prostate
MDA-MB-435 = tested on: MDA-MB-435

`C[C@@H](O)[C@H]1C(=O)N2C(C(=O)O)=C(SCCN=CN)C[C@H]12` was tested. Which GI50 (OVCAR-4 ovarian) did it give?
Its GI50 is 2.21 µM.

What about the TGI (OVCAR-4 ovarian) of the same molecule?
Its TGI is 6.41 µM.

What about the GI50 (786-0 renal) of the same molecule?
The GI50 was 2.98 µM.

And the TGI (786-0 renal)?
Its TGI is 11 µM.

And the GI50 (IGROV1 ovarian)?
The GI50 was 1.47 µM.

And the TGI (IGROV1 ovarian)?
The TGI was 9.06 µM.

And the GI50 (LOX IMVI melanoma)?
Its GI50 is 1.44 µM.

And the TGI (LOX IMVI melanoma)?
Its TGI is 3.97 µM.

What about the GI50 (BT-549 breast) of the same molecule?
Its GI50 is 2.33 µM.

What about the TGI (BT-549 breast) of the same molecule?
Its TGI is 7.6 µM.

What about the GI50 (MDA-MB-231 breast) of the same molecule?
The GI50 was 2.16 µM.

What about the TGI (MDA-MB-231 breast) of the same molecule?
The TGI was 8.04 µM.

What about the GI50 (M14 melanoma) of the same molecule?
Its GI50 is 1.86 µM.

What about the TGI (M14 melanoma) of the same molecule?
The TGI was 3.52 µM.

What about the GI50 (A498 renal) of the same molecule?
The GI50 was 0.853 µM.

What about the TGI (A498 renal) of the same molecule?
The TGI was 2.44 µM.

What about the GI50 (U251 CNS) of the same molecule?
The GI50 was 2.34 µM.

What about the TGI (U251 CNS) of the same molecule?
The TGI was 10.9 µM.

And the GI50 (DU-145 prostate)?
Its GI50 is 2.56 µM.

What about the TGI (DU-145 prostate) of the same molecule?
Its TGI is 11.7 µM.

And the GI50 (RPMI-8226 leukemia)?
Its GI50 is 1.9 µM.

What about the TGI (RPMI-8226 leukemia) of the same molecule?
Its TGI is 6.71 µM.

What about the GI50 (NCI-H460 lung) of the same molecule?
The GI50 was 1.58 µM.

And the TGI (NCI-H460 lung)?
Its TGI is 5.73 µM.

And the GI50 (OVCAR-8 ovarian)?
Its GI50 is 1.58 µM.

And the TGI (OVCAR-8 ovarian)?
Its TGI is 32.5 µM.

And the GI50 (HT29 colon)?
The GI50 was 3.1 µM.

What about the TGI (HT29 colon) of the same molecule?
Its TGI is 18.3 µM.

And the GI50 (NCI-H522 lung)?
The GI50 was 1.58 µM.

What about the TGI (NCI-H522 lung) of the same molecule?
Its TGI is 4.12 µM.

What about the GI50 (SF-268 CNS) of the same molecule?
Its GI50 is 1.73 µM.

And the TGI (SF-268 CNS)?
Its TGI is 5.36 µM.

And the GI50 (SN12C renal)?
Its GI50 is 0.971 µM.

And the TGI (SN12C renal)?
Its TGI is 9.47 µM.

What about the GI50 (UACC-257 melanoma) of the same molecule?
Its GI50 is 1.8 µM.

And the TGI (UACC-257 melanoma)?
The TGI was 3.78 µM.

And the GI50 (RXF 393 renal)?
The GI50 was 1.55 µM.

And the TGI (RXF 393 renal)?
The TGI was 3.58 µM.

And the GI50 (KM12 colon)?
The GI50 was 1.48 µM.

And the TGI (KM12 colon)?
The TGI was 11.4 µM.

What about the GI50 (CCRF-CEM leukemia) of the same molecule?
Its GI50 is 1.66 µM.

And the TGI (CCRF-CEM leukemia)?
Its TGI is 5.73 µM.

And the GI50 (MALME-3M melanoma)?
Its GI50 is 1.69 µM.

And the TGI (MALME-3M melanoma)?
The TGI was 3.33 µM.

What about the GI50 (SNB-19 CNS) of the same molecule?
The GI50 was 2.19 µM.

And the TGI (SNB-19 CNS)?
Its TGI is 8.49 µM.

What about the GI50 (UACC-62 melanoma) of the same molecule?
The GI50 was 1.72 µM.

What about the TGI (UACC-62 melanoma) of the same molecule?
The TGI was 3.33 µM.

And the GI50 (HCT-15 colon)?
The GI50 was 2.96 µM.

What about the TGI (HCT-15 colon) of the same molecule?
The TGI was 11.1 µM.

And the GI50 (SF-295 CNS)?
Its GI50 is 2.67 µM.

And the TGI (SF-295 CNS)?
Its TGI is 7.5 µM.

What about the GI50 (EKVX NSCLC) of the same molecule?
The GI50 was 1.25 µM.

And the TGI (EKVX NSCLC)?
The TGI was 8.61 µM.

What about the GI50 (NCI/ADR-RES ovarian) of the same molecule?
Its GI50 is 1.85 µM.

And the TGI (NCI/ADR-RES ovarian)?
Its TGI is 6.22 µM.

What about the GI50 (CAKI-1 renal) of the same molecule?
The GI50 was 2.13 µM.

What about the TGI (CAKI-1 renal) of the same molecule?
Its TGI is 5.39 µM.

What about the GI50 (NCI-H23 lung) of the same molecule?
The GI50 was 1.81 µM.

And the TGI (NCI-H23 lung)?
The TGI was 4.78 µM.

What about the GI50 (MCF7 breast) of the same molecule?
The GI50 was 2.89 µM.

What about the TGI (MCF7 breast) of the same molecule?
Its TGI is 11.2 µM.

What about the GI50 (TK-10 renal) of the same molecule?
The GI50 was 4.33 µM.

What about the TGI (TK-10 renal) of the same molecule?
Its TGI is over 100 µM.

What about the GI50 (SK-OV-3 ovarian) of the same molecule?
The GI50 was 1.38 µM.

What about the TGI (SK-OV-3 ovarian) of the same molecule?
Its TGI is 15.8 µM.

And the GI50 (NCI-H226 lung)?
The GI50 was 1.55 µM.

And the TGI (NCI-H226 lung)?
The TGI was 3.52 µM.

And the GI50 (HS 578T breast)?
The GI50 was 2.69 µM.

What about the TGI (HS 578T breast) of the same molecule?
The TGI was 28.3 µM.

And the GI50 (SK-MEL-2 melanoma)?
The GI50 was 2.54 µM.

And the TGI (SK-MEL-2 melanoma)?
The TGI was 7.7 µM.

And the GI50 (T-47D breast)?
The GI50 was 2.65 µM.

What about the TGI (T-47D breast) of the same molecule?
Its TGI is 9.34 µM.

What about the GI50 (SR leukemia) of the same molecule?
The GI50 was 1.56 µM.

What about the TGI (SR leukemia) of the same molecule?
Its TGI is 4.94 µM.

What about the GI50 (SK-MEL-5 melanoma) of the same molecule?
Its GI50 is 1.56 µM.

What about the TGI (SK-MEL-5 melanoma) of the same molecule?
The TGI was 2.93 µM.

What about the GI50 (SK-MEL-28 melanoma) of the same molecule?
Its GI50 is 1.86 µM.

And the TGI (SK-MEL-28 melanoma)?
The TGI was 3.69 µM.

What about the GI50 (COLO 205 colon) of the same molecule?
Its GI50 is 1.38 µM.

And the TGI (COLO 205 colon)?
The TGI was 3.22 µM.

What about the GI50 (OVCAR-5 ovarian) of the same molecule?
The GI50 was 2.91 µM.

And the TGI (OVCAR-5 ovarian)?
Its TGI is 9.44 µM.

And the GI50 (SF-539 CNS)?
The GI50 was 2.25 µM.

And the TGI (SF-539 CNS)?
Its TGI is 6.35 µM.

What about the GI50 (SW-620 colon) of the same molecule?
Its GI50 is 0.744 µM.

What about the TGI (SW-620 colon) of the same molecule?
The TGI was 10.4 µM.

What about the GI50 (HCC-2998 colon) of the same molecule?
The GI50 was 1.81 µM.

And the TGI (HCC-2998 colon)?
The TGI was 3.89 µM.

What about the GI50 (MOLT-4 leukemia) of the same molecule?
The GI50 was 2.32 µM.

What about the TGI (MOLT-4 leukemia) of the same molecule?
The TGI was 6.26 µM.

What about the GI50 (ACHN renal) of the same molecule?
Its GI50 is 1.47 µM.

And the TGI (ACHN renal)?
The TGI was 5.8 µM.

What about the GI50 (OVCAR-3 ovarian) of the same molecule?
Its GI50 is 2.95 µM.

What about the TGI (OVCAR-3 ovarian) of the same molecule?
The TGI was 84.1 µM.

What about the GI50 (HOP-62 NSCLC) of the same molecule?
The GI50 was 1.85 µM.

And the TGI (HOP-62 NSCLC)?
Its TGI is 5.82 µM.

What about the GI50 (SNB-75 CNS) of the same molecule?
Its GI50 is 2.12 µM.

What about the TGI (SNB-75 CNS) of the same molecule?
Its TGI is 5.1 µM.

What about the GI50 (HCT-116 colon) of the same molecule?
Its GI50 is 1.43 µM.

What about the TGI (HCT-116 colon) of the same molecule?
Its TGI is 6.04 µM.

What about the GI50 (HOP-92 NSCLC) of the same molecule?
Its GI50 is 1.8 µM.

And the TGI (HOP-92 NSCLC)?
The TGI was 5.2 µM.

What about the GI50 (HL-60(TB) leukemia) of the same molecule?
Its GI50 is 2.45 µM.

And the TGI (HL-60(TB) leukemia)?
The TGI was 6.15 µM.

What about the GI50 (PC-3 prostate) of the same molecule?
The GI50 was 2.23 µM.

And the TGI (PC-3 prostate)?
The TGI was 7.27 µM.

What about the GI50 (MDA-MB-435) of the same molecule?
Its GI50 is 2.38 µM.

And the TGI (MDA-MB-435)?
The TGI was 6.01 µM.
